From patent US5153201A, “Condensed thiazole compounds and use as pharmaceuticals” (Takeda Chemical Industries, Ltd., priority 1990, dated 1992)

Test system: excitatory behavior induced by spinal intrathecal injection of FeCl2 in mice
Experiment: Effects of drugs on the excitatory behavior induced by spinal intrathecal injection of FeCl2 in mice
Type: in vivo
Settings: for Percent inhibition (%): inhibition of mean behavioral score versus saline, 100 mg/kg orally 30 min. prior to FeCl2 injection, mice; for Average score, administration of compound (100 mg/kg): male Slc:ICP mice (5 weeks), 100 mg/kg orally 30 min. prior to FeCl2 (5 μl of 50 mM, intrathecal), observed 15 min. to 1 hr., score 0 normal to 5 death
Experimental: Effects of drugs on the excitatory behavior induced by spinal intrathecal injection of FeCl2 in mice Male Slc:ICP mice (5 weeks) were used. Each group consisted of 10 mice. 5 μl of 50 mM FeCl2 in saline was injected into spinal subarchnoid space between the 1st sacral and the 6th lumbar segment, the behavioral responses were observed from 15 min. to 1 hr. after the intrathecal injection of FeCl2 and scored as follows. |Score Behavioral responses |0: normal (no abnormal behavior) |1: vigorously biting lower abdomen or lower | extremities |2: a) extremely biting lower body with rolling | b) hyperreactivity and […] to external stimuli | c) tremor | at least one of above three behavioral changes were | observed |3: clonic convulsion |4: tonic convulsion or paralysis of lower extremities. |5: death The test compounds (100 mg/kg) were orally administered 30 min. prior to FeCl2 injection.

Row | Structure (SMILES) | Percent inhibition (%) | Average score, administration of compound (100 mg/kg)
1 | COc1cccc(C=Cc2nc3c(s2)NCCC3)c1OC [Example 1, 2-(2,3-Dimethoxystyryl)-4,5,6,7-tetrahydrothiazolo[5,4-b]pyridine] | 82.6 | 0.8
2 | Cc1ccc(-c2nc3c(s2)NCCC3)cc1N [Example 2, 2-(3-Amino-4-methylphenyl)-4,5,6,7-tetrahydrothiazolo[5,4-b]pyridine] | 85.1 | 0.7
3 | Cc1ccc(-c2nc3c(s2)NCCC3)cc1N.Cl.Cl [Example 3, 2-(3-Amino-4-methylphenyl)-4,5,6,7-tetrahydrothiazolo[5,4-b]pyridine dihydrochloride] | 80.9 | 0.9
4 | Cl.Cl.Cn1cnc(C=Cc2nc3c(s2)NCCC3)c1 [Example 5, 2-{2-(1-Methylimidazole-4-yl)ethenyl}-4,5,6,7-tetrahydrothiazolo[5,4-b]pyridine dihydrochloride] | 91.3 | 0.4
5 | CCn1cc(C=Cc2nc3c(s2)NCCC3)nc1-c1ccccc1 [Example 6, 2-{2-(1-Ethyl-2-phenylimidazole-4-yl)ethenyl}-4,5,6,7-tetrahydrothiazolo[5,4-b]pyridine] | 97.9 | 0.1
